Series [1] deals with normal mouse bone marrow c-Kit+ cells. In words: Dose-response titration on normal bone marrow cells in methylcellulose. Format: cell-based. The note with it: undetectable/minimal effects on normal primary bone marrow cells. How it is done: Colonies were scored 6-7 days after plating. For other in vitro studies, mouse leukemic cells and primary AML cell lines were subjected to continuously Olaparib (1 μM) or LiCl (8 mM) treatment in liquid culture for whole duration as indicated in the figures or figure legends. For human leukemic cell lines, experiments were performed as described above with 5 μM Olaparib.

In series [2] the test system is PML-RARα primary human leukemia cells. Description: In vitro treatment of primary AML patient cells carrying PML-RARα (APL). Format: cell-based. How it is done: NB4-LR2 and THP1 cell lines (kindly provided by Dr Arthur Zelent and Professor Mel Greaves respectively) were cultured in RPMI (Invitrogen) supplemented with 10% selected FBS (R10), 2 mM L-Glutamine. Kasumi cell line (kindly provided by Dr Olaf Heidenreich) was cultured in RPMI-Hepes modified (Sigma) supplemented with 20% selected FBS and 2 mM L-[…]). Cell lines were validated by qPCR for their respective oncogenes. NIH3T3 and GP2 cell line was cultured in DMEM (Invitrogen) supplemented with 10% selected FBS and 2 mM L-Glutamine. Human primary AML cells were cultured in IMEM (Invitrogen) supplemented with […], 2 mM L-Glutamine, 10 ng/mL each of human cytokines, IL3, IL6, SCF, FLT3 ligand, and TPO. Cells were kept at 37° C. and 5% CO2. Use of human primary cells was approved by King's College London committee and consents of the patients were obtained. […] Colonies were scored 6-7 days after plating. […] Cells were counted in at least 5 fields for each slide, for a total of over 100 cells per condition. […] Cells were then washed in PBS and the differentiated cells were indicated by the deposition of dark blue insoluble formazan (NBT positive cells) and the percentage of differentiated cells were counted under microscopy. At least 200 cells were counted in most of the cases.

Series [3] concerns MLL-AF9 Hoxa9−/− transformed cells. Description: In vitro PARPi treatment of MLL-AF9 transformed cells from Hoxa9−/− background. The class given is cell-based, mouse. The protocol:
Transduction using concentrated viral supernatant expressing the oncogene of interest was carried out by centrifugation (spinoculation) at 800 g at 32° C. for 2 hours in the presence of 5 μg ml^-1 polybrene (Sigma-Aldrich). Cells were subsequently plated in 1% methylcellulose medium ([…]; Stem Cell Technologies) containing 20 ngml^-1 SCF, 10 ngml^-1 IL-3, 10 ngml^-1 IL-6 and 10 ngml^-1 granulocyte macrophage colony-stimulating factor (GM-CSF) and appropriate selection antibiotic. Colonies were counted after 7 days of culture and replated every 6-7 days at 5×103-1.5×10^4 cell density. Re-plating was performed weekly to generate primary cell lines for further analysis. After the third or fourth round of plating, cells were cultured in R20/20 medium (RPMI 1640, 20% FCS, 20% WEHI-conditioned medium, 2 mM L-glutamine, 100 U/ml penicillin, and 100 μg/ml streptomycin) supplemented with 20 ngml^-1 stem cell factor (SCF), 10 ngml^-1 interleukin (IL)-3, and 10 ngml^-1 IL-6 to establish cell lines. All recombinant murine cytokines were from PeprotechEC. […] Colonies were scored 6-7 days after plating. […] Cells were counted in at least 5 fields for each slide, for a total of over 100 cells. The percentage of senescent cells was calculated by the percentage of the number of blue cell in the field.

In series [4] the test system is MLL pre-LSC. In words: Colony formation of MLL pre-LSC with PARPi, LiCl or combination. The class given is cell-based, mouse. To be noted: seven days; 8 mM LiCl, 1 μM Olaparib. The protocol: (§1) Colonies were scored 6-7 days after plating. For other in vitro studies, mouse leukemic cells and primary AML cell lines were subjected to continuously Olaparib (1 μM) or LiCl (8 mM) treatment in liquid culture for whole duration as indicated in the figures or figure legends. For human leukemic cell lines, experiments were performed as described above with 5 μM Olaparib. 1×10^5 cells were cytospun for 5 min at 300 g onto glass slides. Slides were then stained with May-Grunwald solution (Sigma-Aldrich) for 3 min at room temperature. After washing in water, they were incubated for 20 min in Giemsa solution (Sigma-Aldrich) (1:20 in water). Slides were washed again in water before being mounted with Mowiol. Cells were counted in at least 5 fields for each slide, for a total of over 100 cells per condition. NBT reduction assay were performed to determine myeloid differentiation. 0.1% of NBT (final concentration) was added to the liquid culture or semi-solid methocult and incubated at 37° C. CO2 incubator for 3 hrs and 12 hrs, respectively. Cells were then washed in PBS and the differentiated cells were indicated by the deposition of dark blue insoluble formazan (NBT positive cells) and the percentage of differentiated cells were counted under microscopy. At least 200 cells were counted in most of the cases.

For series [5], the system named is MLL LSC. Description: Colony formation and differentiation of MLL LSC with PARPi, LiCl or combination. The note with it: seven days; 8 mM LiCl, 1 μM Olaparib. The class given is cell-based, mouse. How it is done:
as §1

Series [6] concerns ovarian cancer. To be noted: untargeted population; cited from earlier work.

For the compound `O=C(c1cc(Cc2n[nH]c(=O)c3ccccc23)ccc1F)N1CCN(C(=O)C2CC2)CC1` [Olaparib, 4-[(3-[(4-cyclopropylcarbonyl)piperazin-4-yl]carbonyl)-4-fluorophenyl]methyl(2H)-phthalazin-1-one], in series [1], the “in vitro maximal tolerable dose” value is “up to 1 uM”. In series [2] (1 μM Olaparib for 5 days), the “differentiation of primary AML cells” value is reported as “increased differentiation”. Further, the “in vitro PARPi response (sensitivity)” value in series [2] (primary patient cells treated 5 days) was “highly sensitive”. Further, the “senescence (β-galactosidase staining)” value in series [3] (48 hrs PARPi treatment) is “induction of senescence”. For the same compound, the “colony forming ability and differentiation” value in series [3] (seven days in methylcellulose with PARPi) is “significant suppression of colony forming ability and differentiation”. The “colony forming ability / growth inhibition” value in series [4] is on record as “non-effective”. The “colony forming ability / leukemic cell growth” value in series [5] is “ineffective”. Moreover, in series [6], the “overall survival benefit compared to chemotherapy” value is “failed to show overall survival benefit”.
